How the values were obtained:
9 L gliosarcoma cells = assay: Amino acid uptake inhibition assay in 9 L gliosarcoma cells; assay type: cell-based, rat
Protocol: Amino acid uptake inhibition assays. The 9 L gliosarcoma cells were initially grown as monolayers in T-flasks containing Dulbecco's Modified Eagle's Medium (DMEM) under humidified incubator conditions (37° C., 5% CO2/95% air). The growth media was supplemented with 10% fetal calf serum and antibiotics (10,000 units/ml penicillin and 10 mg/ml streptomycin). The growth media was replaced three times per week, and the cells were passaged so the cells would reach confluency in a week's time.
When the monolayers were confluent, cells were prepared for experimentation in the following manner. Growth media was removed from the T-flask, and the monolayer cells were exposed to 1× trypsin:EDTA for ˜1 minute to weaken the protein attachments between the cells and the flask. The flask was then slapped, causing the cells to release. Supplemented media was added to inhibit the proteolytic action of the trypsin, and the cells were aspirated through an 18 Ga needle until they were monodisperse. A sample of the cells was counted under a microscope using a hemocytometer, and the live/dead fraction estimated through trypan blue staining (>98% viability). The remainder of the cells was placed into a centrifuge tube, centrifuged at 75 G for 5 minutes, and the supernatant was removed. The cells were then resuspended in amino-acid/serum-free DMEM salts.
In this study, approximately 4.55×10^5 cells were exposed to either [^18F]5a or [^18F]5b (5 μCi) in 3 ml of amino acid free media±transporter inhibitors (10 mM) for 30 minutes under incubator conditions in 12×75 mm glass vials. Each assay condition was performed in duplicate. After incubation, cells were twice centrifuged (75 G for 5 minutes) and rinsed with ice-cold amino-acid/serum-free DMEM salts to remove residual activity in the supernatant. The vials were placed in a Packard Cobra II Auto-Gamma counter, the raw counts decay corrected, and the activity per cell number determined. The data from these studies (expressed as percent uptake relative to control) were graphed using Excel, with statistical comparisons between the groups analyzed using a 1-way ANOVA (GraphPad Prism software package).

9 L gliosarcoma tumor = assay: Biodistribution in Fischer rats with intracranial 9 L gliosarcoma tumor; assay type: in vivo; details: tumor-bearing Fischer rats; for Tissue distribution of radioactivity, Brain: normal brain contralateral to tumor
Protocol: Tumor induction and animal preparation. All animal experiments were carried out under humane conditions and were approved by the Institutional Animal Use and Care Committee (IUCAC) at Emory University. Rat 9 L gliosarcoma cells were implanted into the brains of male Fischer rats as described previously [Shoup, T M et al. (1999), J. Nucl. Med. 40:331-338]. Briefly, anesthetized rats placed in a stereotactic head holder were injected with a suspension of 4×10^4 rat 9 L gliosarcoma cells (1×10^7 per mL) in a location 3 mm right of midline and 1 mm anterior to the bregma at a depth of 5 mm deep to the outer table. The injection was performed over the course of 2 minutes, and the needle was withdrawn over the course of 1 minute to minimize the backflow of tumor cells. The burr hole and scalp incision were closed, and the animals were returned to their original colony after recovering from the procedure. Intracranial tumors developed that produced weight loss, apathy and hunched posture in the tumor-bearing rats, and the animals were used at 17-19 days after implantation. Of the 30 animals implanted with tumor cells, 25 developed tumors visible to the naked eye upon dissection and were used in the study.
The tissue distribution of radioactivity was also determined in tumor-bearing Fischer 344 rats following intravenous injection of ˜35 μCi of [^18F]5a or [^18F]5b in 0.3 mL of sterile water. The procedure was similar to that already described for normal rats with the following modifications. The tail vein injections were performed in awake animals using a RTV-190 rodent restraint device (Braintree Scientific) to avoid mortality accompanying anesthesia in the presence of an intracranial mass. The animals were killed at 5 minutes, 60 minutes or 120 minutes post-injection. The same tissues were assayed as in normal rats with the addition of the tumor tissue, and the corresponding region of brain contralateral to the tumor was excised and used for comparison. The uptake in the tumor and contralateral brain at each time point was compared via a two-tailed t-test for paired observations (GraphPad Prism software package).

[1] = 60 min after injection, listed as [^18F]N-MeFAMP (5b)
[2] = 120 min after injection, listed as [^18F]N-MeFAMP (5b)

CNC(C)(CF)C(=O)O (racemic) [[^18F]5b, 3-fluoro-2-methyl-2-(methylamino)propanoic acid]
uptake of activity blocked by BCH relative to controls (9 L gliosarcoma cells; BCH 10 mM, 30 minutes, 9 L gliosarcoma cells): 33% | uptake of activity blocked by N-MeAIB relative to controls (9 L gliosarcoma cells; N-MeAIB 10 mM, 30 minutes, 9 L gliosarcoma cells): 88% | intracellular accumulation in 9 L gliosarcoma cells (9 L gliosarcoma cells; absence of inhibitors, 30 minutes of incubation): 0.50 % of the initial dose per million cells | substrate for A-type amino acid transport system (9 L gliosarcoma cells; based on inhibition of uptake by N-MeAIB): substrates for the A-type amino acid transport system | selectivity for A-type amino acid transport (9 L gliosarcoma cells; compared with [18F]5a): more selective substrate for the A-type amino transport system than [^18F]5a | Tissue distribution of radioactivity, Blood (9 L gliosarcoma tumor; 5 min after injection): 0.69 ± 0.04 percent dose per gram | Tissue distribution of radioactivity, Bone (9 L gliosarcoma tumor; 5 min after injection): 0.33 ± 0.04 percent dose per gram | Tissue distribution of radioactivity, Heart (9 L gliosarcoma tumor; 5 min after injection): 0.34 ± 0.02 percent dose per gram | Tissue distribution of radioactivity, Kidney (9 L gliosarcoma tumor; 5 min after injection): 9.33 ± 0.36 percent dose per gram | Tissue distribution of radioactivity, Liver (9 L gliosarcoma tumor; 5 min after injection): 0.94 ± 0.12 percent dose per gram | Tissue distribution of radioactivity, Lung (9 L gliosarcoma tumor; 5 min after injection): 0.61 ± 0.04 percent dose per gram | Tissue distribution of radioactivity, Muscle (9 L gliosarcoma tumor; 5 min after injection): 0.22 ± 0.011 percent dose per gram | Tissue distribution of radioactivity, Pancreas (9 L gliosarcoma tumor; 5 min after injection): 2.95 ± 0.58 percent dose per gram | Tissue distribution of radioactivity, Spleen (9 L gliosarcoma tumor; 5 min after injection): 0.47 ± 0.04 percent dose per gram | Tissue distribution of radioactivity, Testis (9 L gliosarcoma tumor; 5 min after injection): 0.19 ± 0.008 percent dose per gram | Tissue distribution of radioactivity, Tumor (9 L gliosarcoma tumor; 5 min after injection): 1.29 percent dose per gram | Tissue distribution of radioactivity, Tumor (9 L gliosarcoma tumor; 5 min after injection, listed as [^18F]N-MeFAMP (5b)): 1.29 ± 0.28 percent dose per gram | Tissue distribution of radioactivity, Blood (9 L gliosarcoma tumor; 60 min after injection): 0.17 ± 0.02 percent dose per gram | Tissue distribution of radioactivity, Bone (9 L gliosarcoma tumor; 60 min after injection): 0.23 ± 0.04 percent dose per gram | Tissue distribution of radioactivity, Heart (9 L gliosarcoma tumor; 60 min after injection): 0.25 ± 0.03 percent dose per gram | Tissue distribution of radioactivity, Kidney (9 L gliosarcoma tumor; 60 min after injection): 2.79 ± 0.31 percent dose per gram | Tissue distribution of radioactivity, Liver (9 L gliosarcoma tumor; 60 min after injection): 0.85 ± 0.17 percent dose per gram | Tissue distribution of radioactivity, Lung (9 L gliosarcoma tumor; 60 min after injection): 0.26 ± 0.03 percent dose per gram | Tissue distribution of radioactivity, Muscle (9 L gliosarcoma tumor; 60 min after injection): 0.19 ± 0.02 percent dose per gram | Tissue distribution of radioactivity, Pancreas (9 L gliosarcoma tumor; 60 min after injection): 2.42 ± 0.27 percent dose per gram | Tissue distribution of radioactivity, Spleen (9 L gliosarcoma tumor; 60 min after injection): 0.45 ± 0.06 percent dose per gram | Tissue distribution of radioactivity, Testis (9 L gliosarcoma tumor; 60 min after injection): 0.08 ± 0.008 percent dose per gram | Tissue distribution of radioactivity, Tumor (9 L gliosarcoma tumor; 60 min after injection): 2.28 percent dose per gram | Tissue distribution of radioactivity, Tumor (9 L gliosarcoma tumor; [1]): 2.28 ± 0.16 percent dose per gram | Tissue distribution of radioactivity, Blood (9 L gliosarcoma tumor; 120 min after injection): 0.10 ± 0.007 percent dose per gram | Tissue distribution of radioactivity, Bone (9 L gliosarcoma tumor; 120 min after injection): 0.19 ± 0.02 percent dose per gram | Tissue distribution of radioactivity, Heart (9 L gliosarcoma tumor; 120 min after injection): 0.19 ± 0.02 percent dose per gram | Tissue distribution of radioactivity, Kidney (9 L gliosarcoma tumor; 120 min after injection): 1.59 ± 0.19 percent dose per gram | Tissue distribution of radioactivity, Liver (9 L gliosarcoma tumor; 120 min after injection): 0.41 ± 0.06 percent dose per gram | Tissue distribution of radioactivity, Lung (9 L gliosarcoma tumor; 120 min after injection): 0.19 ± 0.011 percent dose per gram | Tissue distribution of radioactivity, Muscle (9 L gliosarcoma tumor; 120 min after injection): 0.16 ± 0.012 percent dose per gram | Tissue distribution of radioactivity, Pancreas (9 L gliosarcoma tumor; 120 min after injection): 1.74 ± 0.24 percent dose per gram | Tissue distribution of radioactivity, Spleen (9 L gliosarcoma tumor; 120 min after injection): 0.40 ± 0.02 percent dose per gram | Tissue distribution of radioactivity, Testis (9 L gliosarcoma tumor; 120 min after injection): 0.08 ± 0.005 percent dose per gram | Tissue distribution of radioactivity, Tumor (9 L gliosarcoma tumor; 120 min after injection): 1.94 percent dose per gram | Tissue distribution of radioactivity, Tumor (9 L gliosarcoma tumor; [2]): 1.94 ± 0.12 percent dose per gram | Tissue distribution of radioactivity, Brain (9 L gliosarcoma tumor; 5 min after injection): 0.032 ± 0.002 percent dose per gram | Tissue distribution of radioactivity, Brain (9 L gliosarcoma tumor; 60 min after injection): 0.022 percent dose per gram | Tissue distribution of radioactivity, Brain (9 L gliosarcoma tumor; [1]): 0.022 ± 0.006 percent dose per gram | Tissue distribution of radioactivity, Brain (9 L gliosarcoma tumor; 120 min after injection): 0.020 percent dose per gram | Tissue distribution of radioactivity, Brain (9 L gliosarcoma tumor; [2]): 0.020 ± 0.005 percent dose per gram

Source: patent publication US7989649B2, “Tumor imaging compounds” (Emory University, priority 2002, dated 2011)
